Entries after “also recorded” stand apart in the source; their conditions may differ.

Consider one compound from patent publication US20220133753A1, “COMPOSITIONS AND METHODS USEFUL FOR TREATING DISEASES CHARACTERIZED BY INSUFFICIENT PANTOTHENATE KINASE ACTIVITY” (Comet Therapeutics, Inc., priority 2016, published 2022).

The nature of data set [1]: Conversion of CoA in mouse serum by HPLC. In kind it is in vitro ADME. An excerpt:
The conversion of CoA to 4′-phosphopantetheine was further investigated in mouse serum and in human serum.

The test system of a further data set is Drosophila S2 cells. The data set is described as follows: HoPan treatment of Drosophila S2 cells in combination with CoA or 4′-phosphopantetheine. In kind it is cell-based. Particulars: HoPan treated S2 cells. On the procedure: HoPan treatment of Drosophila S2 Cell in combination with CoA or 4′-phosphopantetheine treatment: Drosophila Schneider's S2 cells were maintained at standard conditions as explained above. Cells in the exponential phase of growth were used for all the experiments. Different indicated concentrations of CoA or 4′-phosphopantetheine (deuterium labelled PPanSH(D4) or unlabeled PPanSH) were added to S2 cells either in the presence or absence of 0.5 mM HoPan (Zhou Fang Pharm Chemical, China) for 48 h. Similarly, Drosophila S2 cells were treated with different concentrations of PPanSH(D4) at either 25° C. or 4° C. and cells were then harvested at various time points to access transport of PPanSH(D4). Stable isotope labelled PPanSH containing 4 deuterium atoms was purchased from Syncom (Groningen, The Netherlands) as a sodium salt (chemical structure is provided in FIG. 13A). As a read out cell count, intracellular total CoA and PPanSH levels (both labelled and unlabeled levels wherever appropriate) and histone acetylation levels were analyzed as explained below.
Drosophila S2 Cell Immunofluorescence Staining: For immunofluorescence Drosophila S2 cells were seeded on Poly-L-Lysine coated (Sigma-Aldrich) glass microscope slides and allowed to settle for 45 min. Cells were fixed with 3.7% formaldehyde (Sigma Aldrich) for 20 min, washed briefly with PBS+0.1% Triton-X-100 (Sigma Aldrich) and permeabilized with PBS+0.2% Triton-X-100 for 20 min. The slides were incubated in primary antibody (rabbit anti-AcLys, Cell Signaling Cat No: 9441, 1:500) to visualize histone acetylation levels in PBS+0.1% Triton-X-100 overnight and after an additional washing step in PBS+0.1% Triton-X-100 they were incubated in secondary goat anti-rabbit-Alexa488 antibody (Molecular Probes) for two hours at room temperature (RT). F-actin was detected with Rhodamin-Phalloidin (20 U/ml)(Invitrogen) and DNA by staining with DAPI (0.2 ug/ml) (Thermo Scientific). Finally the samples were mounted in 80% glycerol and analyzed using a Leica fluorescence microscope with Leica software. Adobe Photoshop and Illustrator (Adobe Systems Incorporated, San Jose, Calif., USA) were used for image assembly.

Data set [2] is described as follows: Mice CoA intravenous injection study. In kind it is in vivo, mouse. As to conditions: i.v. On the procedure: Sample preparation for mass spectrometry and instrumental parameters: Samples were briefly washed with ice-cold PBS solution. Samples were then sonicated thoroughly in 100 μl ice-cold milliQ (MQ) water containing 50 mM Tris(2-carboxyethyl)phosphine hydrochloride. Subsequently 100 ul saturated ammonium sulfate was added to each sample and centrifuged for 20 min at 10° C., 16100 rcf to collect supernatant. To 150 μl of supernatant, 15 ul of ammonium hydroxide (12.5%) was added and 20 μl was injected for LC-MS (liquid chromatography-mass spectrometry) analysis. For mouse plasma analysis, 50 ul of MQ water containing 50 mM Tris (2-carboxyethyl)phosphine hydrochloride was added to 50 ul of plasma and processed further as mentioned above. Appropriate dilution series of standard CoA, PPanSH and PPanSH(D4) was processed similarly before analysis. […] The flow was maintained at 1 ml/min with optimized mobile phase gradient of MQ water (A), 200 mM NH4Ac in 95/5 MQ water/acetonitrile adjusted to pH 4.5 with acetic acid (B), and acetonitrile (C). The separated analytes were detected with positive mode mass spectrometry under unit resolution. […] The absolute concentration was finally calculated using linear regression analysis of respective standard compounds, except CoA(D4) which was estimated indirectly using CoA standards. […]

Another data set has as its system HEK293 cells. Briefly: HoPan treatment of mammalian HEK293 cells in combination with CoA or 4′-phosphopantetheine. In kind it is cell-based, human. As to conditions: HoPan treated HEK293 cells, compound added to the medium. How it is done:
HoPan treatment of mammalian HEK293 Cells in combination with CoA and 4′-phosphopantetheine treatment: HEK293 cells were maintained in dMEM (Invitrogen) supplemented with 10% fetal calf serum (Gibco) and antibiotics (penicillin/streptomycin, Invitrogen). For HoPan treatment, cells were cultured in custom made dMEM without vitamin B5 (Thermo Scientific) supplemented with dialyzed FCS (Thermo Scientific). CoA or PPanSH was added to HEK293 cells for the final concentration of 25 uM, either in the presence or absence of HoPan (0.5 mM) for 4 days, followed by analysis for phenotype and rescue efficiency of CoA and PPanSH.
Western blot analysis and Antibodies: For Western blot analysis, cells were collected and washed with phosphate buffer saline (PBS), followed by centrifugation. The cells were lysed and sonicated in 1X Laemmli Sample Buffer and boiled for 5 min with 5% β-mercaptoethanol (Sigma). Protein content was determined using DC protein assay (BioRad). Equal amounts of protein were loaded on a 10 or 12.5% SDS-PAGE gel, transferred onto PVDF membranes and blocked with 5% milk in PBS/0.1% Tween, followed by overnight incubation with primary antibodies. The primary antibodies used were: rabbit-anti dPANK/fbl, 1:4000 Eurogentec custom made as described previously5, mouse anti-tubulin (Sigma Aldrich Cat no: T5168, 1:5000), anti-acetyl-Histone3 (Active Motif Cat no: 39139, 1:2000), anti GAPDH (Fitzgerald Cat no: 10R-G109a, 1:10000), rabbit anti COASY (Abcam Cat no: AB129012, 1:1000). Appropriate HRP-conjugated secondary antibodies (Amersham) were used and detection was performed using enhanced chemi-luminescence (Pierce cat nog: 32106) and Amersham hyperfilm (GE Healthcare). Band intensities were quantified with Image-studio software.

The conditions of data set [3]: liver extracts, −20° C., after a week; cited from earlier work.

On to `CC(C)(COP(=O)(O)OP(=O)(O)OC[C@H]1O[C@@H](n2cnc3c(N)ncnc32)[C@H](O)[C@@H]1OP(=O)(O)O)[C@@H](O)C(=O)NCCC(=O)NCCS` [CoA, Coenzyme A], for which the “conversion of CoA in serum” value in data set [1] is listed as “converted to 4′-phosphopantetheine”. Moreover, the “intracellular concentration of CoA” value in the data set on Drosophila S2 cells (compound added to the culture medium, HPLC) was “restored the intracellular concentration of CoA”. For the same compound, in the data set with Drosophila S2 cells (compound added to the medium), the “rescue of HoPan-induced decrease in cell count” value is “rescued” and the “rescue of HoPan-induced histone acetylation defect” value was “rescued”. The “intracellular levels of 4′-phosphopantetheine” value in the data set on Drosophila S2 cells (external supplementation, HPLC) is given as “significantly increased”. In addition, the “conversion of injected CoA in plasma” value in data set [2] (30 minutes, HPLC) was “rapidly converted to 4′-phosphopantetheine”. Further, in data set [2] (6 hrs, mass spectrometry), the “4′-phosphopantetheine in plasma after CoA injection” value was “elevated levels of PpanSH; also recorded: still present”. Also, in the data set with HEK293 cells, the “rescue of HoPan-induced impaired histone acetylation” value is reported as “rescued” and the “rescue of HoPan-induced reduction in cell count” value was “rescued”. In the data set on HEK293 cells (HPLC), the “intracellular CoA level” value is recorded as “restored the intracellular concentration of CoA”. Also, in data set [3], the “CoA degrades to” value is listed as 50%.
